Data taken from ChEMBL document CHEMBL3991601, “The target landscape of clinical kinase drugs” (Science, 2017).
Calls of active or inactive are those of the source.

What was measured:
[1] = molecular target: Cyclin-dependent kinase 7 (Homo sapiens, UniProt P50613)
[2] = molecular target: T1, Serine/threonine-protein kinase Nek1 (Homo sapiens, UniProt Q96PY6)
T1 sequence (Q96PY6 whole entry): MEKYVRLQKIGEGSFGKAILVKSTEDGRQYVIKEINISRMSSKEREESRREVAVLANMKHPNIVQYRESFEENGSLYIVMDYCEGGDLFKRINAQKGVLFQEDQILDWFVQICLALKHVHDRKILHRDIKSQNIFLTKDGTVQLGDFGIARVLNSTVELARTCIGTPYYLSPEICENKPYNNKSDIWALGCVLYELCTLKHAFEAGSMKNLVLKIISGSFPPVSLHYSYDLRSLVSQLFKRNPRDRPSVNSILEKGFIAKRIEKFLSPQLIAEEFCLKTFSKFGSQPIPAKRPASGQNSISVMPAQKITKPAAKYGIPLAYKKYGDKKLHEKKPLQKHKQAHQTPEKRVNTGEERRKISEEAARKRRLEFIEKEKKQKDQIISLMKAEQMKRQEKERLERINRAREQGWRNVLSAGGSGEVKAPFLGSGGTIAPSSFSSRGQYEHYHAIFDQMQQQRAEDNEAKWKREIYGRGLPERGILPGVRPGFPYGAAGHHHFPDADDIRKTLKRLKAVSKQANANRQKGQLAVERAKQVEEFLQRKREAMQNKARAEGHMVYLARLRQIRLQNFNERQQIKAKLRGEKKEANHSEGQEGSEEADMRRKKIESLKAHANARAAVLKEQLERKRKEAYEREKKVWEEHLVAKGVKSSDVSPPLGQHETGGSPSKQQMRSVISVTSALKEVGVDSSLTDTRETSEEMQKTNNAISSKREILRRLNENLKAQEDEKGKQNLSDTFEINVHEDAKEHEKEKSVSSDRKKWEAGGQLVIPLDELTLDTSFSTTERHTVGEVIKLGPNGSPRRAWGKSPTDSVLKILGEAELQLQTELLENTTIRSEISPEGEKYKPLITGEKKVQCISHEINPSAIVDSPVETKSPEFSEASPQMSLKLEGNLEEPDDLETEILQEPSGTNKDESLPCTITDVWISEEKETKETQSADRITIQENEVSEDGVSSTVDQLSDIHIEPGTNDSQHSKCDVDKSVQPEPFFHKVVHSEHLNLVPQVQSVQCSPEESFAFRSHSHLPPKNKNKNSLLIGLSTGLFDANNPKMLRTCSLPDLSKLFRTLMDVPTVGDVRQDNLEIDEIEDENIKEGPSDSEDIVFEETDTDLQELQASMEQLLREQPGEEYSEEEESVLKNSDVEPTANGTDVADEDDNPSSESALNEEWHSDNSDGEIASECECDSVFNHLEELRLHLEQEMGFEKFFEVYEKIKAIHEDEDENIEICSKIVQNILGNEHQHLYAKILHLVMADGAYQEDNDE

[3] = molecular target: Cyclin-dependent kinase 12 (Homo sapiens, UniProt Q9NYV4)
Cyclin-dependent kinase 12, sequence (Q9NYV4 whole entry): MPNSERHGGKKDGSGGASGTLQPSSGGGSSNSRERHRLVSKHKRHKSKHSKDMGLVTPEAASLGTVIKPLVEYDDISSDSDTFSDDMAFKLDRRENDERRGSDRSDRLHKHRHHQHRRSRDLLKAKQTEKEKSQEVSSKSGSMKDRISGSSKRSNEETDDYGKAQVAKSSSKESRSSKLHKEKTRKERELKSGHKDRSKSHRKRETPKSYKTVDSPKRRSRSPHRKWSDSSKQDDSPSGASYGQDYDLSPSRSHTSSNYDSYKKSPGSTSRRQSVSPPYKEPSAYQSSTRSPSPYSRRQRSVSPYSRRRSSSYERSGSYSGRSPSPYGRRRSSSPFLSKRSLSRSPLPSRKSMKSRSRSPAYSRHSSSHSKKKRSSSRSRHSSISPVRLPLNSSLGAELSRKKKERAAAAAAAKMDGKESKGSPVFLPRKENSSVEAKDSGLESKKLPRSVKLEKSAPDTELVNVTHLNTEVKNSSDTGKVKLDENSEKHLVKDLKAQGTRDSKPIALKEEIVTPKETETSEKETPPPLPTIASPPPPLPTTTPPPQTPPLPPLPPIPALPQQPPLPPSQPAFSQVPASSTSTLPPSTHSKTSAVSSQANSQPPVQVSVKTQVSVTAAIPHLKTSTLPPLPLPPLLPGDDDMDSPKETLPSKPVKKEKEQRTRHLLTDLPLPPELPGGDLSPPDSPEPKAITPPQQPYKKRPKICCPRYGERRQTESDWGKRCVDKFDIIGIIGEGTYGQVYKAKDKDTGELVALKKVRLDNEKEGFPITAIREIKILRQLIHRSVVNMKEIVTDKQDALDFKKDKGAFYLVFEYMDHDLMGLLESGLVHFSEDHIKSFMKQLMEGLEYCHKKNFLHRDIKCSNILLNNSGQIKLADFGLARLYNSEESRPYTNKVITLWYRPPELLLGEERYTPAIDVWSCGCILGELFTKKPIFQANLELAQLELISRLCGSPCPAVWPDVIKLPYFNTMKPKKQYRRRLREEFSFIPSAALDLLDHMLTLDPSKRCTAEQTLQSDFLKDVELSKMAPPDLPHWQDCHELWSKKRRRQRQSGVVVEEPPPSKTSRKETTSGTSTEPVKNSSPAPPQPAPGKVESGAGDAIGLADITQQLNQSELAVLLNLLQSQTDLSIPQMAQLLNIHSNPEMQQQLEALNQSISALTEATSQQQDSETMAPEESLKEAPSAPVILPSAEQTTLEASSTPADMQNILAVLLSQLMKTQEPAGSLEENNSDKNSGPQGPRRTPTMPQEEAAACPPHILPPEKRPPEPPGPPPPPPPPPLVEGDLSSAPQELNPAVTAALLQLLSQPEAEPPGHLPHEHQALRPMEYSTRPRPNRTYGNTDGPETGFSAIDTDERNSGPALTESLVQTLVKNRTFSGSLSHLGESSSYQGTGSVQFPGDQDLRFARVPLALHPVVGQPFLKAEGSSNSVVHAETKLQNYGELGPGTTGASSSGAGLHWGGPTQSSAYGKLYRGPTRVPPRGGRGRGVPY

[4] = molecular target: DnaJ homolog subfamily A member 1 (Homo sapiens, UniProt P31689)
DnaJ homolog subfamily A member 1, sequence (P31689 whole entry): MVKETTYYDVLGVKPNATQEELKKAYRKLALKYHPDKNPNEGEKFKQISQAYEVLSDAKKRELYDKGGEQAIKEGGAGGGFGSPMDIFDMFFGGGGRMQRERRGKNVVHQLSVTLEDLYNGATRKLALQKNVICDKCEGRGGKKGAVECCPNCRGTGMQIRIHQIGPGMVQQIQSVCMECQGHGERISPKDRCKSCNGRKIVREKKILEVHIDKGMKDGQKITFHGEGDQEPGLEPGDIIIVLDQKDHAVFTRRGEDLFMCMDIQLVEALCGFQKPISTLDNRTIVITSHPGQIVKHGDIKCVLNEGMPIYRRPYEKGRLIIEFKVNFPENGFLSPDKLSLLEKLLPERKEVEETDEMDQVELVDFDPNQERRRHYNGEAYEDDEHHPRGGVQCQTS

[5] = molecular target: Tyrosine-protein kinase SYK (Homo sapiens, UniProt P43405)
[6] = molecular target: Protein-tyrosine kinase 6 (Homo sapiens, UniProt Q13882)
Protein-tyrosine kinase 6, sequence (Q13882 whole entry): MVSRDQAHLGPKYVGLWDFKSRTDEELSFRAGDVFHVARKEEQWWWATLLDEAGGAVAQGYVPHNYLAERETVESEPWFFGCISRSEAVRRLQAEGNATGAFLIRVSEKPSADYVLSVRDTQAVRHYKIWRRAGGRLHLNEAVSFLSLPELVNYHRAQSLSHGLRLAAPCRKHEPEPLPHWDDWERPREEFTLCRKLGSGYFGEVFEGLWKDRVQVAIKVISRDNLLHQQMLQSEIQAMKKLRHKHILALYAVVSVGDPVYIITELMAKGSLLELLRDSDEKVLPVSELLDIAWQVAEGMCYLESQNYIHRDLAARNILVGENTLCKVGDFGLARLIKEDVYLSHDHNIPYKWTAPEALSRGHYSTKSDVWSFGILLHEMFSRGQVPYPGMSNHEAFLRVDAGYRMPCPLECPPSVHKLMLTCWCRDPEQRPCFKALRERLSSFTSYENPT

[7] = molecular target: Serine/threonine-protein kinase B-raf (Homo sapiens, UniProt P15056)
Aurora kinase B = Aurora kinase B (Homo sapiens, UniProt Q96GD4)
Aurora kinase B, sequence (Q96GD4 whole entry): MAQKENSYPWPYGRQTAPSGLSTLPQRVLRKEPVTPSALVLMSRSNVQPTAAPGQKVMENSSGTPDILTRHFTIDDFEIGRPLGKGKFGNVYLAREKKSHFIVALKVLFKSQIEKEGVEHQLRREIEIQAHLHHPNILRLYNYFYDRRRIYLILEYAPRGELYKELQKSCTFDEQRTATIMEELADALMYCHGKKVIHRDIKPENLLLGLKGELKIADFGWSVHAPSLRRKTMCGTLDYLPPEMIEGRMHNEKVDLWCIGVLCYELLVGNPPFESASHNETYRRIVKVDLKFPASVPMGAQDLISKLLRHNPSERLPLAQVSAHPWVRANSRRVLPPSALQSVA

Myosin-10 = Myosin-10 (Homo sapiens, UniProt P35580)
Myosin-10, sequence (P35580 whole entry, canonical isoform): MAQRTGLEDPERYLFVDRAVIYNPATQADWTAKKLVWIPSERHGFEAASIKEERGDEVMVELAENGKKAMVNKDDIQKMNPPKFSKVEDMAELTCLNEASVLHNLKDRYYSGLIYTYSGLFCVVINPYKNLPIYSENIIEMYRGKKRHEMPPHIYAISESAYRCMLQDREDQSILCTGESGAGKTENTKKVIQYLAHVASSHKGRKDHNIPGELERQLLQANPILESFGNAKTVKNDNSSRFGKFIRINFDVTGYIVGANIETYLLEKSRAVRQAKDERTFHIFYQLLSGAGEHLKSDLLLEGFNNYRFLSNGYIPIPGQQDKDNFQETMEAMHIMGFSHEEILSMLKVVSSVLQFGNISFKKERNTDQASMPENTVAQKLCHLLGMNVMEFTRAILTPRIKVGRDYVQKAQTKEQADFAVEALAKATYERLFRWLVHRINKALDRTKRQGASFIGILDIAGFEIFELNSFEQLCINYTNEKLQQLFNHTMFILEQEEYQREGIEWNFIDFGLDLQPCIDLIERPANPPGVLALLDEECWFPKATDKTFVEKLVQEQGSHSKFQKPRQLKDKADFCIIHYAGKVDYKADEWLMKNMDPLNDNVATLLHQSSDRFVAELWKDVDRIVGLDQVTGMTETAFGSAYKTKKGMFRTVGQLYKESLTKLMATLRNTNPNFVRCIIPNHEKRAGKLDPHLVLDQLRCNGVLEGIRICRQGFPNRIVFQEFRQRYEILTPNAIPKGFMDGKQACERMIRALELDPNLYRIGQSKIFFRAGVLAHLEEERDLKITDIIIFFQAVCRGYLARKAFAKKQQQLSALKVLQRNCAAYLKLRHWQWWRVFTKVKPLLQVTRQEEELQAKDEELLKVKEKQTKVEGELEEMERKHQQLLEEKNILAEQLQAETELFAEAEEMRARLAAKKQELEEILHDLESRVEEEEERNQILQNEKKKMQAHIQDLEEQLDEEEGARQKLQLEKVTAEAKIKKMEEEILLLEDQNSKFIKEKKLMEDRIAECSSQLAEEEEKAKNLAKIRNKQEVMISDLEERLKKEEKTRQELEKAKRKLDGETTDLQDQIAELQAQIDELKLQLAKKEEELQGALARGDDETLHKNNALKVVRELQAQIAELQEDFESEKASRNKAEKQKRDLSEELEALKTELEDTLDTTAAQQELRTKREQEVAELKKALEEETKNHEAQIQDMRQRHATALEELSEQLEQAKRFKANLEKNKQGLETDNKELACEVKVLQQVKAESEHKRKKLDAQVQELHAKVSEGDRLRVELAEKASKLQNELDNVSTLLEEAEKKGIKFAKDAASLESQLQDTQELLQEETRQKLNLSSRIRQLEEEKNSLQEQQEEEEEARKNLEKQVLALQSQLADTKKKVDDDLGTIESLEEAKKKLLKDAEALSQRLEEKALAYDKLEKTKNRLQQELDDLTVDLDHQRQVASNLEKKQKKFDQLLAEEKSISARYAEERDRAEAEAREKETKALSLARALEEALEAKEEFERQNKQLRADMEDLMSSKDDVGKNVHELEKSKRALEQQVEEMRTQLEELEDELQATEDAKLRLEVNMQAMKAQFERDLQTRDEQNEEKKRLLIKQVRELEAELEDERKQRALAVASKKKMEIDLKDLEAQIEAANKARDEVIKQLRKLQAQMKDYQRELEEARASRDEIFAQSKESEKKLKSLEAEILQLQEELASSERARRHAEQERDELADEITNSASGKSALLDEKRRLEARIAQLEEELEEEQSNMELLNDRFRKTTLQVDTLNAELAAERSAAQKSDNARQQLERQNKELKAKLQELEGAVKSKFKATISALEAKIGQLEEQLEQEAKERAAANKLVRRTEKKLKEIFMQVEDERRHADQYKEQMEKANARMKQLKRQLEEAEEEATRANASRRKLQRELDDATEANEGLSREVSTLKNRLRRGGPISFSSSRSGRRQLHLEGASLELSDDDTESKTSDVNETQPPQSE

[8] = molecular target: Casein kinase I isoform epsilon (Homo sapiens, UniProt P49674)
Casein kinase I isoform epsilon, sequence (P49674 whole entry, canonical isoform): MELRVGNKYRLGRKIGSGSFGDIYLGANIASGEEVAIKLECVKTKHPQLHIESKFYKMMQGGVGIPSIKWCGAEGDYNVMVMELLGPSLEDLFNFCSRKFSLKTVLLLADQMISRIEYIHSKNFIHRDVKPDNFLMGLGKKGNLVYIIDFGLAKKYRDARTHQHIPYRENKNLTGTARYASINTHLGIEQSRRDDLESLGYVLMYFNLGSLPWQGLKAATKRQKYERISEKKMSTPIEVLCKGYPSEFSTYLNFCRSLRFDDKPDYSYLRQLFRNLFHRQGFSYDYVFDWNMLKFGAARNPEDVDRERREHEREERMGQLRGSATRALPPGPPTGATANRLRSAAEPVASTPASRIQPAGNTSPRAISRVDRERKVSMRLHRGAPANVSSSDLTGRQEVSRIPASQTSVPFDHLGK

[9] = molecular target: T2, Glycogen phosphorylase, liver form (Homo sapiens, UniProt P06737); assay type: subcellular, K-562, COLO 205, SK-N-BE(2) and MV-4-11, Cell lysate; settings: read-out: Kd apparent
T2 sequence (P06737 whole entry): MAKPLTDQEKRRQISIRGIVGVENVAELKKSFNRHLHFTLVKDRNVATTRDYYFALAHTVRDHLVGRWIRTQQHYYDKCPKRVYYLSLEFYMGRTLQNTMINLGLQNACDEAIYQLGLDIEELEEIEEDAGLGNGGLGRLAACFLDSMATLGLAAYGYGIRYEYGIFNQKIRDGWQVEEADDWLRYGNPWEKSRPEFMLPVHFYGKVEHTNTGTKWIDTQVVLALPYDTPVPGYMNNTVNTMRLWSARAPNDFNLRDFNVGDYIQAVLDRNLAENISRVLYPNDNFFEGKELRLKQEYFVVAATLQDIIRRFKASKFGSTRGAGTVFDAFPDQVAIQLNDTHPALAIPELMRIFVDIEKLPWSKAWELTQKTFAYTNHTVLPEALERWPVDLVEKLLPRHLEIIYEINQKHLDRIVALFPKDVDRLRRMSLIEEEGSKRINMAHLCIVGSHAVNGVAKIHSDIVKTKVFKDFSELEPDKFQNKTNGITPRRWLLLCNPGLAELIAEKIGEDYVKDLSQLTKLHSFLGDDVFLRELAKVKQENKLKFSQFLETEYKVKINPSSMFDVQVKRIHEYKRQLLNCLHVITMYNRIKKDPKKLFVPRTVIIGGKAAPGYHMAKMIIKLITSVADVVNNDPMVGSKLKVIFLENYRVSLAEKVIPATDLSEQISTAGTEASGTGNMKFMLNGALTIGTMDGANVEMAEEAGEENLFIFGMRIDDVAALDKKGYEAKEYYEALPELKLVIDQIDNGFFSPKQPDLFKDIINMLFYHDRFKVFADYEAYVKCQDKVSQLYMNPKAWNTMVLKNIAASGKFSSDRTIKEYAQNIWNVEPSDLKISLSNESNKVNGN

[10] = molecular target: Inosine-5'-monophosphate dehydrogenase 2 (Homo sapiens, UniProt P12268)
Actin-related protein 2 = Actin-related protein 2 (Homo sapiens, UniProt P61160)
[11] = molecular target: S-adenosylmethionine synthase isoform type-2 (Homo sapiens, UniProt P31153)
Also: in the data inactive means no Kd found up to 30 µM.

Row | Kd [1] | Kd [2] | Kd [3] | Kd [4] | Kd [5] | Kd [6] | Kd [7] | Kd (Aurora kinase B) | Kd (Myosin-10) | Kd [8] | Kd [9] | Kd [10] | Kd (Actin-related protein 2) | Kd [11] | Compound
1 | > 30 µM (inactive) | 2.38 µM (active) | 2.98 µM | > 30 µM (inactive) | > 30 µM (inactive) | > 30 µM (inactive) | 2.48 µM (active) | 0.02 µM (active) | > 30 µM (inactive) | > 30 µM (inactive) | > 30 µM (inactive) | > 30 µM (inactive) | > 30 µM (inactive) | – | Cc1csc(-c2nnc(Nc3ccc(Oc4ncccc4-c4ccnc(N)n4)cc3)c3ccccc23)c1 [AMG-900]
2 | – | > 30 µM (inactive) | > 30 µM (inactive) | > 30 µM (inactive) | – | – | > 30 µM (inactive) | 0.02 µM (active) | > 30 µM (inactive) | – | > 30 µM (inactive) | – | > 30 µM (inactive) | > 30 µM (inactive) | CC(=O)NCC(=O)N1[C@@H]2CC[C@H]1c1ccc(Nc3ncc(C(F)(F)F)c(NC4CCC4)n3)cc12 [PF-03814735]

More lines, now with the values behind:

Row | Compound | Kd [1] | Kd [2] | Kd [3] | Kd [4] | Kd [5] | Kd [6] | Kd [7] | Kd (Aurora kinase B) | Kd (Myosin-10) | Kd [8] | Kd [9] | Kd [10] | Kd (Actin-related protein 2) | Kd [11]
3 | NC(=O)Nc1cc(-c2cccc(F)c2)sc1C(=O)N[C@H]1CCCNC1 [AZD-7762] | > 30 µM (inactive) | > 30 µM (inactive) | > 30 µM (inactive) | > 30 µM (inactive) | 1.48 µM (active) | 1.37 µM (active) | > 30 µM (inactive) | 0.715 µM (active) | > 30 µM (inactive) | > 30 µM (inactive) | > 30 µM (inactive) | > 30 µM (inactive) | > 30 µM (inactive) | –
4 | NC1(c2ccc(-c3nc4ccn5c(=O)[nH]nc5c4cc3-c3ccccc3)cc2)CCC1 [MK-2206] | > 30 µM (inactive) | > 30 µM (inactive) | > 30 µM (inactive) | > 30 µM (inactive) | > 30 µM (inactive) | > 30 µM (inactive) | – | > 30 µM (inactive) | > 30 µM (inactive) | > 30 µM (inactive) | > 30 µM (inactive) | > 30 µM (inactive) | > 30 µM (inactive) | > 30 µM (inactive)
5 | FC(F)(F)c1ccc(/C=C/c2nc(COc3ccc(CCCCn4ccnn4)cc3)co2)cc1 [MUBRITINIB] | > 30 µM (inactive) | > 30 µM (inactive) | > 30 µM (inactive) | > 30 µM (inactive) | > 30 µM (inactive) | > 30 µM (inactive) | > 30 µM (inactive) | > 30 µM (inactive) | > 30 µM (inactive) | > 30 µM (inactive) | > 30 µM (inactive) | – | > 30 µM (inactive) | –
6 | COc1ncc(-c2ccc3nccc(-c4ccnnc4)c3c2)cc1NS(=O)(=O)c1ccc(F)cc1F [OMIPALISIB] | > 30 µM (inactive) | > 30 µM (inactive) | > 30 µM (inactive) | > 30 µM (inactive) | > 30 µM (inactive) | > 30 µM (inactive) | – | > 30 µM (inactive) | > 30 µM (inactive) | > 30 µM (inactive) | > 30 µM (inactive) | > 30 µM (inactive) | > 30 µM (inactive) | > 30 µM (inactive)
7 | Cc1[nH]c(/C=C2\C(=O)Nc3ccccc32)c(C)c1CCC(=O)O [ORANTINIB] | – | > 30 µM (inactive) | > 30 µM (inactive) | > 30 µM (inactive) | – | – | > 30 µM (inactive) | – | > 30 µM (inactive) | – | > 30 µM (inactive) | > 30 µM (inactive) | > 30 µM (inactive) | –
8 | Cc1cnc(NC(=O)Nc2cc(Br)c(C)cc2OC[C@@H]2CNCCO2)cn1 [RABUSERTIB] | > 30 µM (inactive) | > 30 µM (inactive) | > 30 µM (inactive) | > 30 µM (inactive) | > 30 µM (inactive) | > 30 µM (inactive) | – | > 30 µM (inactive) | > 30 µM (inactive) | > 30 µM (inactive) | > 30 µM (inactive) | > 30 µM (inactive) | > 30 µM (inactive) | > 30 µM (inactive)
9 | COc1cc2c(Nc3ccc(Cl)c(Cl)c3F)ncnc2cc1OC[C@@H]1C[C@@H]2CN(C)C[C@@H]2C1 [TESEVATINIB] | > 30 µM (inactive) | > 30 µM (inactive) | > 30 µM (inactive) | > 30 µM (inactive) | > 30 µM (inactive) | 0.172 µM (active) | – | > 30 µM (inactive) | > 30 µM (inactive) | 1.02 µM | > 30 µM (inactive) | > 30 µM (inactive) | > 30 µM (inactive) | > 30 µM (inactive)
10 | C[C@@H](NC(=O)c1ncnc(N)c1Cl)c1ncc(C(=O)Nc2cc(C(F)(F)F)c(Cl)cn2)s1 [TOVORAFENIB] | > 30 µM (inactive) | > 30 µM (inactive) | > 30 µM (inactive) | > 30 µM (inactive) | > 30 µM (inactive) | > 30 µM (inactive) | – | > 30 µM (inactive) | > 30 µM (inactive) | > 30 µM (inactive) | > 30 µM (inactive) | > 30 µM (inactive) | > 30 µM (inactive) | > 30 µM (inactive)
11 | Cc1cc(Nc2ncnc3ccc(NC4=NC(C)(C)CO4)cc23)ccc1Oc1ccn2ncnc2c1 [TUCATINIB] | > 30 µM (inactive) | > 30 µM (inactive) | > 30 µM (inactive) | > 30 µM (inactive) | > 30 µM (inactive) | > 30 µM (inactive) | – | > 30 µM (inactive) | > 30 µM (inactive) | > 30 µM (inactive) | > 30 µM (inactive) | > 30 µM (inactive) | > 30 µM (inactive) | > 30 µM (inactive)
12 | Cn1ncc(Cl)c1-c1cc(C(=O)N[C@H](CN)Cc2ccc(F)c(F)c2)oc1Cl [UPROSERTIB] | – | > 30 µM (inactive) | > 30 µM (inactive) | > 30 µM (inactive) | > 30 µM (inactive) | > 30 µM (inactive) | > 30 µM (inactive) | > 30 µM (inactive) | > 30 µM (inactive) | > 30 µM (inactive) | > 30 µM (inactive) | > 30 µM (inactive) | – | > 30 µM (inactive)
